What all share (type): cell-based
One assay relates to Akt. As to the kind of experiment: pAkt levels in BT20 cells. The following applies: 5 μM; BT20, constitutively activated Akt.
In a further assay the target is T1, STAT1 (Homo sapiens, UniProt P42224).
T1 sequence (P42224 1-750): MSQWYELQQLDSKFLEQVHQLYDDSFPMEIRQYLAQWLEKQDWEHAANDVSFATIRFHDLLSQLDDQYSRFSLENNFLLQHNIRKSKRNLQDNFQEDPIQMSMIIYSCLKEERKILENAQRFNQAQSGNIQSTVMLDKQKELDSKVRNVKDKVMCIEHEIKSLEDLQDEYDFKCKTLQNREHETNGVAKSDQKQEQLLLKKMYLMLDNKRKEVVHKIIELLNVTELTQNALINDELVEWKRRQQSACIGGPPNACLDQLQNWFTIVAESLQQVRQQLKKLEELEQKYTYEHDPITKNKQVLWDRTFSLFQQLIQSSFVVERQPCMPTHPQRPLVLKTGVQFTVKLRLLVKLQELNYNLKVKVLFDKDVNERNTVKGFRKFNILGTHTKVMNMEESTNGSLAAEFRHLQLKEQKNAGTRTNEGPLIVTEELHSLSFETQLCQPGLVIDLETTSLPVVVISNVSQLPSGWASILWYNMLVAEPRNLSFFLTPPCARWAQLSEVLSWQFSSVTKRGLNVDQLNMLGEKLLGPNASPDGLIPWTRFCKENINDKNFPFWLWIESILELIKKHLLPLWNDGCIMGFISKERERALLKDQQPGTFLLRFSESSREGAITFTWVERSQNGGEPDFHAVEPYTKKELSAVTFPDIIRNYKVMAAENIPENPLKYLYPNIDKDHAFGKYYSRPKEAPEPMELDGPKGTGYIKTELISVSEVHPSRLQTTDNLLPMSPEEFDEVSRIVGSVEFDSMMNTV
As to the kind of experiment: IFNγ-stimulated phosphoStat1 in BT20 cells. More on the design: endogenous in cells; host or cells: BT20 breast tumor cells. The following applies: 5 μM, 2 h, then IFNγ 25 ng/mL, 20 and 45 min. How it is done: (§1) The compounds are selective for STAT3 over STAT1 in BT20 breast tumor cells. BT20 cells prepared as above and were treated with 5 μM of the compound of Example 1 for two hours then were treated with 25 ng/mL of interferon γ (IFNγ). […] (FIG. 4, bottom panel).

A further assay deals with STAT3 (Homo sapiens, UniProt P40763). As to the kind of experiment: Inhibition of STAT3 phosphorylation in BT20 breast tumor cells (western blot). Set-up: endogenous in cells; host or cells: BT20 breast tumor cells. How it is done:
Inhibition of STAT3 in BT20 Breast Tumor Cells. General procedure: 35 mm petri dishes were plated with 300,000 BT20 cells in 2 mL RPMI1640 media containing 10% FBS, […], streptomycin, and glutamine. Prodrugs were dissolved in DMSO and were added to the cells with fresh media at varying concentrations. After 2 h the cells were washed with ice cold phosphate buffered saline. Washed cells were treated with lysis buffer (50 mM Hepes, pH 7.4, 150 mM NaCl, 1.5 mM MgCl2, 1 mM EGTA, 100 mM NaF, 10 mM sodium pyrophosphate, 10% glycerol, 1% Triton X-100, 1 mM PMSF, 1 mM Na3VO4, 10 μg/mL leupeptin and 10 μg/mL aprotinin). Cell-free detergent extracts were centrifuged at 15,000 rpm in a microcentriguge for 30 min at 4° C. and the protein concentrations of the supernatants determined. Aliquots containing 12 μg of protein were separated on 8% SDS-PAGE and were transferred to PVDF filters. The filters were blocked with 5% bovine serum albumin and were probed with pStat3^Y705 antibody followed by secondary antibody, whose signal was detected with an enhanced chemiluminescence kit (ECL, Amersham, Chicago, Ill.). Filters were stripped with stripping buffer (62.5 mM Tris, pH 6.8, 2% SDS, and 0.1 M 2-mercaptoethanol) at 50° C. for 30 min. Filters were then probed with total Stat3 antibody and visualized with chemiluminescence as above.
Because DMSO is toxic, other formulations were evaluated for potential use in animal models. The compound of Example 1 was dissolved in EtOH, 20% (w/v) Trappsol (hydroxypropyl β-cyclodextran, pharmaceutical grade), or a liposomal formulation to a concentration of 5 mM. These formulations were given to cells at 0.1, 0.5, and 5 μM concentrations. At two hours, cells were lysed and pSTAT3 levels were determined by Western Blot (FIG. 3). Different formulations have little effect on inhibition of STAT3. The compound of Example 1 was dissolved in DMSO, EtOH, Trappsol, or as a 10 mol % mixture in dimyristoylphosphatidyl choline and applied to BT20 cell in culture. After two hours, cells were lysed and pSTAT3 levels determined by Western blot. To prepare liposomes a solution of 1.0 mg of the compound of Example 1, 7.2 mg of DMPC, 0.41 mg of Tween 20 in 1.0 mL of tert-butanol was lyophilized. A control lipid formulation of 7.2 mg of DMPC and 0.41 mg of Tween 20 in 1.0 mL of tert-butanol was lyophilized. These samples were mixed with 236 μL of H2O and were vortexed and sonicated for 5 min.
as §1
Time course of inhibition of STAT3 phosphorylation in BT20 cells. BT20 cells were plated as above and treated with the compounds from Examples 1 and 6 and western blots were performed at varying time intervals.
A general note: Immunoblotting shows a protein as a band on a membrane.

Each structure is given as a SMILES string.

Sequence of STAT3 (P40763 whole entry): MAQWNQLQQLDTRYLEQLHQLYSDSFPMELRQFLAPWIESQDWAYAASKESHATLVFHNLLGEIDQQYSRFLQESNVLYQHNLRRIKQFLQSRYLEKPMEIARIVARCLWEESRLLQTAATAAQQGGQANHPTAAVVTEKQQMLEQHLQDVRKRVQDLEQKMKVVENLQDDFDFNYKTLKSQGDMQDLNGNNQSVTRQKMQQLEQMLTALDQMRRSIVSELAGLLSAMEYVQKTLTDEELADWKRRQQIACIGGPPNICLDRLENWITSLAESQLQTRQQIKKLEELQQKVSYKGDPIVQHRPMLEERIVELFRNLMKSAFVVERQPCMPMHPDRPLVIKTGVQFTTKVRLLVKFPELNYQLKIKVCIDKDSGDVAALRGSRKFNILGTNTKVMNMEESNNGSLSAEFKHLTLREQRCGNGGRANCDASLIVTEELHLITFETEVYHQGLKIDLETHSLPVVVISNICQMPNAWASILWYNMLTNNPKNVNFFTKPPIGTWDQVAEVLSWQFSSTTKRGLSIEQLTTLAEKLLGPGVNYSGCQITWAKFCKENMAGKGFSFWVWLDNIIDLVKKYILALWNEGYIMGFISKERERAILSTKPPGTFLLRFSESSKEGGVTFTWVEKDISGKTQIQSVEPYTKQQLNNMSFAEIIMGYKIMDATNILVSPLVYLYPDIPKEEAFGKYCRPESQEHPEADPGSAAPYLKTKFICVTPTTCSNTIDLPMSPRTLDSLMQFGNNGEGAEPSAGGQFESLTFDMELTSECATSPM

As to `C/C(=C\C(=O)N[C@H]1CCc2cccc3c2N(C1=O)[C@H](C(=O)N[C@H](C)CCC(N)=O)C3)c1ccc(C(F)(F)P(=O)(OCOC(=O)C(C)(C)C)OCOC(=O)C(C)(C)C)cc1` [Example 1, (2E)-3-[4-[[bis[(2,2-dimethyl-1-oxopropoxy)methoxy]phosphinyl]difluoromethyl]phenyl]-but-2-enoyl-Haic-(R)-4-aminopentamide], the pAkt levels entry in the assay on Akt is “no effect”. The “IFNγ-stimulated increase in phosphoStat1” value at STAT1 is listed as “did not inhibit”. On STAT3 (5 μM, 2 h, then EGF 50 ng/mL, BT20), the “increase in pSTAT3 formation on EGF stimulation” value is recorded as “inhibited the increase in pSTAT3 formation”. Besides, the “phosphorylation of STAT3 at the indicated time points” value on STAT3 (5 μM, BT-20 cells) is “inhibit the phosphorylation of STAT3”. For the same compound, the “selectivity for STAT3 over STAT1 and AKT” value on STAT3 (BT20 cells) is “selective for STAT3 over STAT1 and AKT”. The “pSTAT3 inhibition compared with DMSO sample” value is “did not inhibit as much as did the DMSO sample” at STAT3 (dissolved in EtOH, 0.1 μM, 2 h, BT20); “comparable” at STAT3 (dissolved in EtOH, 0.5 and 5 μM, 2 h, BT20); “did not inhibit as much as did the DMSO sample” on STAT3 (in 20% Trappsol HPB, 0.1 μM, 2 h, BT20); “comparable” at STAT3 (in 20% Trappsol HPB, 0.5 and 5 μM, 2 h, BT20); “inhibition comparable to DMSO” at STAT3 (liposomal preparation (DMPC/Tween 20), 2 h, BT20).

(Values after US8841257B2, “Inhibitors of STAT3 and uses thereof” (Board of Regents, The University of Texas System, priority 2009, dated 2014).)
